Measurements reported in the supplement of paper PMC10307832.

Assays:
Assay in all cases: relative viability (nuclei count vs DMSO), 5 days (fraction); higher = more cells survive
BX 795 + Pictilisib = compound: O=C(NCCCNc1nc(Nc2cccc(NC(=O)N3CCCC3)c2)ncc1I)c1cccs1 [BX 795] + CS(=O)(=O)N1CCN(Cc2cc3nc(-c4cccc5[nH]ncc45)nc(N4CCOCC4)c3s2)CC1 [Pictilisib] (partner 1 µM)
How it was run: (§1)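 A single step with final 0.05% Triton X-100, 1% formaldehyde and 1 ug/ml Hoechst fixed the cells and stained nuclei 5 days after treatment. Lung cancer cell lines in 1536-well plates had been treated by pin tool the day after seeding with one drug alone or a fixed anchor-drug dose plus five library-drug doses (not always all listed) in √10 steps, and nuclei were counted on 4× images. Relative viability is the ratio of nuclei in treated wells to nuclei in vehicle wells, taken as the median of duplicate plates.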

BX 795 + Crizotinib = compound: O=C(NCCCNc1nc(Nc2cccc(NC(=O)N3CCCC3)c2)ncc1I)c1cccs1 [BX 795] + C[C@@H](Oc1cc(-c2cnn(C3CCNCC3)c2)cnc1N)c1c(Cl)ccc(F)c1Cl [Crizotinib] (partner 1 µM)
How it was run: as §1

BX 795 + Dasatinib = compound: O=C(NCCCNc1nc(Nc2cccc(NC(=O)N3CCCC3)c2)ncc1I)c1cccs1 [BX 795] + Cc1nc(Nc2ncc(C(=O)Nc3c(C)cccc3Cl)s2)cc(N2CCN(CCO)CC2)n1 [Dasatinib] (partner 0.075 µM)
How it was run: as §1

BX 795 + Phenformin = compound: O=C(NCCCNc1nc(Nc2cccc(NC(=O)N3CCCC3)c2)ncc1I)c1cccs1 [BX 795] + N=C(N)NC(=N)NCCc1ccccc1 [Phenformin] (partner 250 µM)
How it was run: as §1

BX 795 + Vorinostat = compound: O=C(NCCCNc1nc(Nc2cccc(NC(=O)N3CCCC3)c2)ncc1I)c1cccs1 [BX 795] + O=C(CCCCCCC(=O)Nc1ccccc1)NO [Vorinostat] (partner 1 µM)
How it was run: as §1

| Cell Line | relative viability (BX 795 + Pictilisib; first compound 0.04 µM) | relative viability (BX 795 + Pictilisib; first compound 0.1265 µM) | relative viability (BX 795 + Pictilisib; first compound 0.4 µM) | relative viability (BX 795 + Pictilisib; first compound 1.265 µM) | relative viability (BX 795 + Crizotinib; first compound 0.04 µM) | relative viability (BX 795 + Crizotinib; first compound 0.1265 µM) | relative viability (BX 795 + Crizotinib; first compound 0.4 µM) | relative viability (BX 795 + Crizotinib; first compound 1.265 µM) | relative viability (BX 795 + Dasatinib; first compound 0.04 µM) | relative viability (BX 795 + Dasatinib; first compound 0.1265 µM) | relative viability (BX 795 + Dasatinib; first compound 0.4 µM) | relative viability (BX 795 + Dasatinib; first compound 1.265 µM) | relative viability (BX 795 + Phenformin; first compound 0.04 µM) | relative viability (BX 795 + Phenformin; first compound 0.1265 µM) | relative viability (BX 795 + Phenformin; first compound 0.4 µM) | relative viability (BX 795 + Phenformin; first compound 1.265 µM) | relative viability (BX 795 + Vorinostat; first compound 0.04 µM) | relative viability (BX 795 + Vorinostat; first compound 0.1265 µM) | relative viability (BX 795 + Vorinostat; first compound 0.4 µM) | relative viability (BX 795 + Vorinostat; first compound 1.265 µM) |
| --- | --- | --- | --- | --- | --- | --- | --- | --- | --- | --- | --- | --- | --- | --- | --- | --- | --- | --- | --- | --- |
| NCI-H322M | 0.627 | 0.521 | 0.537 | 0.527 | 0.906 | 0.959 | 0.711 | 0.912 | 0.256 | 0.254 | 0.295 | 0.28 | 0.858 | 0.796 | 0.951 | 0.659 | 0.981 | 0.884 | 1.36 | 1.18 |
| NCI-H358 | 0.387 | 0.251 | 0.327 | 0.245 | 0.652 | 0.38 | 0.367 | 0.17 | 0.155 | 0.165 | 0.154 | 0.154 | 0.296 | 0.319 | 0.257 | 0.117 | 0.716 | 0.661 | 0.434 | 0.138 |
| NCI-H441 | 0.609 | 0.503 | 0.666 | 0.37 | 0.874 | 0.695 | 0.878 | 0.508 | 0.695 | 0.7 | 0.587 | 0.459 | 0.986 | 0.831 | 0.983 | 0.531 | 0.893 | 0.843 | 0.848 | 0.613 |
| NCI-H460 | 0.361 | 0.418 | 0.374 | 0.261 | 0.859 | 1.17 | 0.684 | 0.192 | 0.491 | 0.474 | 0.385 | 0.385 | 0.5 | 0.609 | 0.415 | 0.372 | 0.822 | 0.967 | 0.48 | 0.285 |
| NCI-H520 | 0.303 | 0.321 | 0.279 | 0.28 | 0.662 | 0.571 | 0.443 | 0.249 | 0.199 | 0.194 | 0.376 | 0.162 | 0.699 | 0.658 | 0.4 | 0.233 | 0.69 | 0.721 | 0.768 | 0.381 |
| NCI-H596 | 0.449 | 0.38 | 0.417 | 0.431 | 1.08 | 1.02 | 1.03 | 0.874 | 0.626 | 0.587 | 0.561 | 0.591 | 0.681 | 0.802 | 0.805 | 0.887 | 0.669 | 0.585 | 0.623 | 0.594 |
| NCI-H647 |  | 0.363 | 0.438 | 0.343 | 1.08 | 1.17 | 0.955 | 0.242 | 0.19 | 0.196 | 0.151 | 0.0897 | 0.456 | 0.541 | 0.572 | 0.266 | 0.553 | 0.658 | 0.571 | 0.189 |
| NCI-H650 | 0.86 | 0.979 | 0.762 | 0.623 | 0.712 | 0.771 | 0.421 | 0.619 | 0.463 | 0.41 | 0.42 | 0.337 | 0.467 | 0.425 | 0.5 | 0.408 | 0.391 | 0.429 | 0.339 | 0.34 |
| NCI-H661 | 0.461 | 0.484 | 0.39 | 0.441 | 1.06 | 1.02 | 1.12 | 0.865 | 0.9 | 0.938 | 0.501 | 0.515 | 0.261 | 0.245 | 0.274 | 0.238 | 0.824 | 0.862 | 0.832 | 0.449 |
| NCI-H727 | 0.498 | 0.643 | 0.31 | 0.315 | 0.868 | 0.986 | 0.634 | 0.492 | 0.376 | 0.318 | 0.386 | 0.58 | 0.571 | 0.566 | 0.444 | 0.617 | 1.29 | 1.25 | 1.14 | 1.21 |
| NCI-H838 | 0.449 | 0.425 | 0.382 | 0.326 | 0.781 | 0.689 | 0.628 | 0.356 | 0.29 | 0.367 | 0.261 | 0.231 | 0.494 | 0.538 | 0.425 | 0.214 | 0.737 | 0.69 | 0.642 | 0.201 |
| NCI-H1355 | 0.451 | 0.423 | 0.436 | 0.424 | 1.03 | 0.937 | 1.1 | 0.961 | 0.763 | 0.659 | 0.684 | 0.664 | 0.491 | 0.455 | 0.465 | 0.357 | 0.649 | 0.63 | 0.696 | 0.487 |
| NCI-H1437 | 0.488 | 0.411 | 0.417 | 0.55 | 0.871 | 0.96 | 1.03 | 0.562 | 0.308 | 0.467 | 0.396 | 0.379 | 0.279 | 0.336 | 0.328 | 0.257 | 0.765 | 0.945 | 1.02 | 0.621 |
| NCI-H1650 | 0.698 | 0.576 | 0.517 | 0.498 | 0.98 | 0.969 | 0.786 | 0.591 | 0.317 | 0.276 | 0.291 | 0.258 | 0.484 | 0.417 | 0.393 | 0.239 | 0.593 | 0.486 | 0.528 | 0.369 |
| NCI-H1651 | 0.569 | 0.617 | 0.615 | 0.645 | 0.945 | 0.948 | 0.852 | 0.853 | 0.38 | 0.426 | 0.43 | 0.347 | 0.322 | 0.356 | 0.312 | 0.24 | 0.553 | 0.478 | 0.548 | 0.541 |
| NCI-H1666 | 0.364 | 0.516 | 0.449 | 0.273 | 1.16 | 1.05 | 1.13 | 0.769 | 0.847 | 0.851 | 0.736 | 0.569 | 0.362 | 0.568 | 0.483 | 0.49 | 1.13 | 0.97 | 1.22 | 0.923 |
| NCI-H1734 | 0.463 | 0.471 | 0.411 | 0.368 | 0.765 | 0.727 | 0.64 | 0.432 | 0.446 | 0.465 | 0.474 | 0.398 | 0.419 | 0.375 | 0.402 | 0.307 | 0.888 | 0.773 | 0.482 | 0.34 |
| NCI-H1755 | 0.442 | 0.418 | 0.35 | 0.305 | 0.935 | 0.908 | 0.767 | 0.516 | 0.432 | 0.468 | 0.465 | 0.353 | 0.618 | 0.564 | 0.592 | 0.546 | 0.738 | 0.735 | 0.739 | 0.761 |
| NCI-H1915 | 0.98 | 0.831 | 0.954 | 0.798 | 0.904 | 0.95 | 0.85 | 0.765 | 0.323 | 0.285 | 0.306 | 0.29 | 0.388 | 0.389 | 0.38 | 0.301 | 0.534 | 0.51 | 0.525 | 0.49 |
| NCI-H1944 | 0.376 | 0.329 | 0.367 | 0.363 | 1.18 | 1.03 | 1.09 | 0.741 | 0.241 | 0.219 | 0.201 | 0.194 | 0.254 | 0.203 | 0.234 | 0.191 | 0.674 | 0.637 | 0.575 | 0.475 |
| NCI-H1975 | 0.3 | 0.328 | 0.26 | 0.224 | 0.99 | 1.04 | 0.879 | 0.643 | 0.346 | 0.433 | 0.401 | 0.289 | 0.409 | 0.442 | 0.422 | 0.317 | 0.761 | 0.713 | 0.656 | 0.399 |
| NCI-H1993 | 0.83 | 0.79 | 0.793 | 0.806 | 0.888 | 0.891 | 0.795 | 0.665 | 0.454 | 0.56 | 0.472 | 0.525 | 0.492 | 0.499 | 0.485 | 0.523 | 0.833 | 0.731 | 0.577 | 0.524 |
| NCI-H2009 | 0.777 | 0.744 | 0.823 | 0.626 | 1.02 | 0.972 | 0.874 | 0.645 | 0.261 | 0.292 | 0.249 | 0.162 | 0.492 | 0.447 | 0.447 | 0.305 | 0.731 | 0.67 | 0.818 | 0.591 |
| NCI-H2023 | 0.152 | 0.239 | 0.188 | 0.197 | 0.592 | 0.626 | 0.269 | 0.282 | 0.5 | 0.54 | 0.306 | 0.302 | 0.426 | 0.378 | 0.305 | 0.195 | 0.471 | 0.689 | 0.189 | 0.3 |
| NCI-H2085 | 0.463 | 0.454 | 0.433 | 0.489 | 0.911 | 0.841 | 0.843 | 0.732 | 0.25 | 0.214 | 0.221 | 0.249 | 0.73 | 0.83 | 0.699 | 0.606 | 0.78 | 0.809 | 0.778 | 0.725 |
| NCI-H2087 | 0.999 | 1.02 | 1.03 | 0.756 | 0.745 | 0.963 | 0.868 | 0.516 | 0.895 | 0.814 | 0.79 | 0.619 | 0.547 | 0.545 | 0.563 | 0.411 | 0.762 | 1.06 | 0.95 | 0.587 |
